Experiments:
CYP3A4M = biological target: T1, CYP3A4M (Homo sapiens, UniProt P08684); assay: Human liver microsome CYP450 inhibition, CYP3A4M midazolam 1-hydroxylation; format: in vitro ADME; details: human liver microsomes, midazolam probe substrate
T1 construct: tissue Corning Gentest 452161; host or cells: human liver microsomes
Experimental: (§1) The inhibition effect of the compounds of the present disclosure on the human liver microsome CYP450 enzyme was determined by the following method:
(§2) An appropriate amount of human liver microsome stock solution (20 mg/mL) was diluted to obtain a 0.25 mg/mL microsome solution with 7.5 mM MgC12 solution for later use (prepared right before use).
(§3) b. An appropriate amount of the stock solution was precisely pipetted, and diluted into series solution I at the concentrations of 10 mM, 3 mM, 1 mM, 0.3 mM, 0.03 mM and 0.003 mM with an appropriate amount of DMSO solution. An appropriate amount of the above series solution I was precisely pipetted, and diluted to obtain series solution II at the concentrations of 3 mM, 1 mM, 0.3 mM, 0.1 mM, 0.03 mM, 0.003 mM and 0.0003 mM with an appropriate amount of acetonitrile. An appropriate amount of the above series solution II was precisely pipetted, and diluted with PBS to obtain a working solution at the concentrations of 150 μM, 50 μM, 15 μM, 5μM, 1.5 μM, 0.15 μM and 0.015 μM for later use.
a. […]
(§4) The values were calculated by Graphpad Prism to obtain the IC50 values for the inhibition of drugs on CYP2C19 (S)-mephenytoin 4′-hydroxylation and CYP3A4M midazolam 1-hydroxylation metabolism in human liver microsomes, as shown in Table 6.

[1] = Pharmacokinetic evaluation in mice; format: in vivo; details: female, mouse, plasma, po, C57 mice, intragastric administration, 2 mg/kg
Experimental: (§5) The drug concentration in the plasma of the test animals (mice) at different time points after intragastric administration (i.g.) of compound 18-p1 was determined by using an LC/MS/MS method. The pharmacokinetic behavior of the compound of the present disclosure in mice was studied and its pharmacokinetic profile was evaluated.
Nine C57 mice, female, purchased from Beijing Vital River Laboratory Animal Technology Co., Ltd., with animal production license number of SOCK (Shanghai) 2017-0005.
An amount of compound 18-p1 was weighed, dissolved with 5% by volume of DMSO and 5% tween 80 (Shanghai Titan Scientific Co., Ltd.), and then prepared into a 0.1 mg/mL clear solution with 90% normal saline.
Intragastric administration: the mice were intragastrically administered at a dose of 2.0 mg/kg and a volume of 20.0 mL/kg.
(§6) The compound 18-p1 was administered intragastrically to mice, and 0.1 mL of blood was collected from the orbit before administration and 0.25 h, 0.5 h, 1.0 h, 2.0 h, 4.0 h, 6.0 h, 8.0 h, 11.0 h and 24.0 h after administration. The blood was placed in an EDTA-K2 anticoagulation tube and centrifuged at 10,000 rpm for 1 min (4° C.), and plasma was separated out within 1 h and then stored at −20° C. for testing. The process from blood sampling to centrifugation was performed under an ice bath.
The content of the test compounds at different concentrations in plasma of mice after administration was determined: 10 μL of plasma of mice at each time point after administration was taken, and 200 μL of methanol (containing an internal standard solution camptothecin, 100 ng/mL) was added; the mixture was vortexed for 1 min, and centrifuged for 10 min (18,000 r/min). 3 μL of supernatant was taken from the plasma sample for LC/MS/MS analysis.

[2] = Pharmacokinetic evaluation in nude mice; format: in vivo; details: female, mouse, plasma, po, BALB/C nude mice, intragastric administration, 50 mg/kg
Experimental: as §5, with “test animals (nude mice) at different” for “test animals (mice) at different”, “disclosure in nude mice was” for “disclosure in mice was”
Nine BALB/C nude mice, female, intragastric administration, purchased from Beijing Vital River Laboratory Animal Technology Co., Ltd., with animal production license number of SCXK (Shanghai) 2017-0005.
An amount of compound 18-p1 was weighed, dissolved in 0.5% by volume of CMCNa, and then prepared into a 2.5 mg/mL clear solution with 99.5% normal saline.
The nude mice were intragastrically administered at a dose of 50.0 mg/kg and a volume of 20.0 mL/kg.
as §6, with “intragastrically to nude mice, and” for “intragastrically to mice, and”
The content of the test compounds at different concentrations in plasma of nude mice after administration was determined: 25 μL of plasma of nude mice at each time point after administration was taken, and 200 μL of acetonitrile (containing 50 μL of internal standard solution camptothecin, 100 ng/mL) was added; the mixture was vortexed for 5 min, and centrifuged for 10 min (4000 r/min). 0.5 μL of supernatant was taken from the plasma sample for LC/MS/MS analysis.

CYP2C19 = biological target: T2, CYP2C19 (Homo sapiens, UniProt P33261); assay: Human liver microsome CYP450 inhibition, CYP2C19 (S)-mephenytoin 4'-hydroxylation; format: in vitro ADME; details: human liver microsomes, (S)-mephenytoin probe substrate
T2 construct: tissue Corning Gentest 452161; host or cells: human liver microsomes
T2 sequence (P33261 whole entry): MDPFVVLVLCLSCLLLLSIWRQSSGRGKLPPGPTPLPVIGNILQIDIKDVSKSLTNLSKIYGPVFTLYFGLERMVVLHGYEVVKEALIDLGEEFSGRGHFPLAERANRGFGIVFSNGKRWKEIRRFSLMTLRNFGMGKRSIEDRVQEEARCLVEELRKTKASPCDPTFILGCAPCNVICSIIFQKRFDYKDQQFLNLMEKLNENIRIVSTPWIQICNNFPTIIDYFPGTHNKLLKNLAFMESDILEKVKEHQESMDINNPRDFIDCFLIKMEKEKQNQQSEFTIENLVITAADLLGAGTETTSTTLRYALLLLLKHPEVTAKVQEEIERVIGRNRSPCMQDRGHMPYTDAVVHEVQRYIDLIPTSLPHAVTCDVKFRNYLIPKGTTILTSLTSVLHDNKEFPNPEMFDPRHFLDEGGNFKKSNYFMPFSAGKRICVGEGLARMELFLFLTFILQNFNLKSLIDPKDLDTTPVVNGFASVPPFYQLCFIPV
Experimental: as §1, §2, §3
a. […]
as §4

[3] = read-out: Apparent distribution volume Vz/F
[4] = read-out: Area under curve AUC0-t
[5] = read-out: Half-life T½ (converted)
[6] = read-out: Plasma concentration Cmax

T1 sequence (P08684 whole entry): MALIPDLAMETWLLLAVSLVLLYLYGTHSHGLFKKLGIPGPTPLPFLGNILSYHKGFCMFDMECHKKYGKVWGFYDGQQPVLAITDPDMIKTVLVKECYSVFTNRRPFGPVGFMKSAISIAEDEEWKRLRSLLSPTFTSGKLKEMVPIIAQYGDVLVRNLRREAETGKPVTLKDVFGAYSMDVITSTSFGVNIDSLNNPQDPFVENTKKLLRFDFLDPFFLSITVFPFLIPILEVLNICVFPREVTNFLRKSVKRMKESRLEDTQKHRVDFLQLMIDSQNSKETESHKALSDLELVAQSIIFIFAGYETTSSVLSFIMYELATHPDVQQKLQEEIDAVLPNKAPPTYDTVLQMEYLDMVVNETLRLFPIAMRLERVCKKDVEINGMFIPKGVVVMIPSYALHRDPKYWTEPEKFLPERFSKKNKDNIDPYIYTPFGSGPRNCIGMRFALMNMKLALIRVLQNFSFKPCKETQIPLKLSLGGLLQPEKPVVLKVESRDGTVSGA

## Cc1nc(N[C@H](C)c2cccc(C(F)F)c2F)c2cc([C@]3(O)CC[C@@H](O)CC3)c(=O)[nH]c2n1 [Example 18-p1, 4-(((R)-1-(3-(difluoromethyl)-2-fluorophenyl)ethyl)amino)-6-((1s,4S)-1,4-dihydroxycyclohexyl)-2-methylpyrido[2,3-d]pyrimidin-7(8H)-one]
CYP3A4M
  IC50: > 30 µM
[1]; [3]
  Vd/F: 23.4 L/kg
[1]; [4]
  AUC(0-t): 146 ng·h/mL
[1]; read-out: Clearance CLz/F
  CL/F: 225 mL/min/kg
[1]; [5]
  half-life: 1.2 h
[1]; [6]
  Cmax: 56.7 ng/mL
[2]; [3]
  Vd/F: 16.6 L/kg
[2]; [4]
  AUC(0-t): 5150 ng·h/mL
[2]; read-out: Clearance CLz/F
  CL/F: 160 mL/min/kg
[2]; [5]
  half-life: 1.2 h
[2]; [6]
  Cmax: 1560 ng/mL
CYP2C19
  IC50: > 30 µM

Reference: patent US20230219951A1, “PYRIDINE-PYRIMIDINE DERIVATIVE, PREPARATION METHOD THEREFOR AND PHARMACEUTICAL USE THEREOF” (Jiangsu Hengrui Pharmaceuticals Co., Ltd., priority 2020, published 2023)
